The text below walks through data of patent US12491271B2, “Positron emission tomography radiotracer for diseases associated with translocator protein overexpression, translocator protein-targeting ligand for fluorescence imaging-guided surgery and photodynamic therapy, and production methods therefor” (Seoul National University R&DB Foundation, priority 2018, dated 2025).

Data set [1] is described as follows: In vitro stability in human serum. The format is in vitro ADME. The settings on record: human serum mixed with 1% ethanol/water, 37° C., for up to 120 minutes. The procedure:
In an experiment on the in vitro stability of the fluorine-18-labeled PET radiotracer ([^18F]BS224) for targeting translocator protein overexpression, 0.4 mL of human serum was mixed with 0.4 mL of 1% ethanol/water containing the fluorine-18-labeled radiotracer ([^18F]BS224), and then the solution was incubated at 37° C. for 0, 10, 30, 60 and 120 minutes and then analyzed by thin film chromatography.

Data set [2] in a line: Measurement of lipophilicity (n-octanol / sodium phosphate buffer partition). The conditions noted are these: n-octanol / sodium phosphate buffer 0.15 M, pH 7.4; measured five times; read-out: lipophilicity (ratio of counts per minute from n-octanol versus sodium phosphate buffer) (converted). The format is physicochemical. The procedure:
For the measurement of lipophilicity, [^18F]BS224 dispersed in 5% ethanol/saline was added to and mixed with n-octanol (5 mL) and sodium phosphate buffer (0.15 M, pH 7.4, 5.0 mL), and then lipophilicity was measured five times. Samples of each phase were counted for radioactivity, and the lipophilicity was expressed as the ratio of the counts per minute from n-octanol versus that of the sodium phosphate buffer. The lipophilicity of [^18F]BS224 was 2.78±0.4.

The target in the next data set is TSPO (Homo sapiens, UniProt P30536). The conditions noted are these: compared with earlier tracer [11C]PK11195, background art; cited from earlier work.

Molecules are shown by their SMILES.

Chain of TSPO (P30536 whole entry): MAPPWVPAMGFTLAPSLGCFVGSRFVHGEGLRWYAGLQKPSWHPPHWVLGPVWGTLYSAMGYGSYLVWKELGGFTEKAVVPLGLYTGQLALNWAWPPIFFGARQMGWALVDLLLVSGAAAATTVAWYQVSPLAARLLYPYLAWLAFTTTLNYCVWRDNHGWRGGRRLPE

As for `CCCN(CCC)C(=O)Cc1c(-c2ccc([18F])cc2)nc2c(Cl)cc(Cl)cn12` [[^18F]BS224, 2-(6,8-dichloro-2-(4-[^18F]fluorophenyl)imidazo[1,2-a]pyridin-3-yl)-N, N-dipropylacetamide], the “stability of radiotracer in human serum (thin film chromatography)” value in data set [1] was “at least 98.7%”. Besides, the logD in data set [2] was 0.444.
In the case of `COc1ccc(OC)c(CN(C(C)=O)c2cc(F)ccc2Oc2ccccc2)c1` [[^11C]DAA1106], the higher uptake on TSPO is listed as 4 fold.
